Measurements reported in patent US8440794B2, “Peptide sequences, their branched form and use thereof for antimicrobial applications” (Universita' Degli Studi di Siena, priority 2008, dated 2013).
Converted amounts (≈) assume the structure as drawn. Where a SMILES comes first, the peptide text is derived from it. Bridges are numbered along the chain shown (N, C = ends). Roman numbers before positions name the chains, in order. [ ]: non-standard residue; d: D form. βAla = NCCC(=O)O

Key:
P. aeruginosa AV65 = format: cell-based, Pseudomonas aeruginosa; conditions: AV65, 24 h
Description: (§1) M33, […], M35 and M36 MICs were determined against strains of several bacterial species, including Gram-negative pathogens and also Staphylococcus aureus (Table 1). MICs in the micromolar range were observed against several Gram-negatives including Pseudomonas aeruginosa, Acinetobacter baumannii and most Enterobacteriaceae, with the exception of Proteus mirabilis, Serratia marcescens and Burkholderia cepacia. Activity of peptides was retained against MDR strains with various resistance mechanisms (such as extended-spectrum beta-lactamases and carbapenemases), including MDR P. aeruginosa strains from CF patients. Antimicrobial profile of M33, […] and potency were overall similar to those of polymyxin B, although M33, M34, M35 and M36 also appeared to have some activity against S. aureus (Table 1).

P. aeruginosa EF-OBG6-1 = format: cell-based, Pseudomonas aeruginosa; conditions: EF-OBG6-1, 24 h
Description: as §1

P. aeruginosa PAO-1 = format: cell-based, Pseudomonas aeruginosa; conditions: PAO-1, 24 h
Description: as §1

[1] = test system: P. aeruginosa SC-BGr12-02; format: cell-based, Pseudomonas aeruginosa; conditions: SC-BGr12-02, 24 h
Description: as §1

[2] = test system: P. aeruginosa SC-CNm03-07; format: cell-based, Pseudomonas aeruginosa; conditions: SC-CNm03-07, 24 h
Description: as §1

[3] = test system: P. aeruginosa SC-DMr05-04; format: cell-based, Pseudomonas aeruginosa; conditions: SC-DMr05-04, 24 h
Description: as §1

[4] = test system: P. aeruginosa SC-GMm03-05; format: cell-based, Pseudomonas aeruginosa; conditions: SC-GMm03-05, 24 h
Description: as §1

[5] = test system: P. aeruginosa SC-MDm03-02; format: cell-based, Pseudomonas aeruginosa; conditions: SC-MDm03-02, 24 h
Description: as §1

[6] = test system: P. aeruginosa SC-MDr03-06; format: cell-based, Pseudomonas aeruginosa; conditions: SC-MDr03-06, 24 h
Description: as §1

[7] = test system: P. aeruginosa SC-VMr04-05; format: cell-based, Pseudomonas aeruginosa; conditions: SC-VMr04-05, 24 h
Description: as §1

P. aeruginosa VR-143/97 = format: cell-based, Pseudomonas aeruginosa; conditions: VR-143/97, 24 h
Description: as §1

[8] = test system: Acinetobacter baumannii RUH 134; format: cell-based; conditions: RUH 134, 24 h
Description: as §1

[9] = test system: Burkholderia cepacia ORB-99; format: cell-based; conditions: 24 h
Description: as §1

[10] = test system: Enterobacer aerogenes W03BG0067; format: cell-based; conditions: 24 h
Description: as §1

[11] = test system: Enterobacter cloacae W03AN0041; format: cell-based; conditions: W03AN0041, 24 h
Description: as §1

[12] = test system: Escherichia coli ATCC 25922; format: cell-based; conditions: ATCC 25922, 24 h
Description: as §1

[13] = test system: Klebsiella pneumoniae ATCC 13833; format: cell-based; conditions: ATCC 13833, 24 h
Description: as §1

[14] = test system: Proteus mirabilis W03VA1017; format: cell-based; conditions: W03VA1017, 24 h
Description: as §1

[15] = test system: Pseudomonas aeruginosa ATCC 27853; format: cell-based; conditions: ATCC 27853, 24 h
Description: as §1

[16] = test system: Serratia marcescens W03BG0003; format: cell-based; conditions: W03BG0003, 24 h
Description: as §1

[17] = test system: Staphylococcus aureus ATCC 29213; format: cell-based; conditions: ATCC 29213, 24 h
Description: as §1

K pneumoniae 7086042 = format: cell-based, Klebsiella pneumoniae; conditions: 7086042, 24 h
Description: as §1

K pneumoniae C8-27 = format: cell-based, Klebsiella pneumoniae; conditions: C8-27, 24 h
Description: as §1

K pneumoniae FIPP-1 = format: cell-based, Klebsiella pneumoniae; conditions: FIPP-1, 24 h
Description: as §1

E. coli W03BG0025 = format: cell-based, Escherichia coli; conditions: W03BG0025, 24 h
Description: as §1

A. baumannii MR157 = format: cell-based, Acinetobacter baumannii; conditions: MR157, 24 h
Description: as §1

A. baumannii RUH 875 = format: cell-based, Acinetobacter baumannii; conditions: RUH 875, 24 h
Description: as §1

S. aureus 3851 = format: cell-based, Staphylococcus aureus; conditions: 3851, 24 h
Description: as §1

human erythrocytes = format: cell-based
Description: FIG. 2. Percentage of haemolysis provoked by tetra-branched M33 peptide incubated 3 or 24 hours with human red blood cells.
Haemolysis of fresh human erythrocytes was determined using the method of Parpart, summarized as follows. A calibration curve was constructed by suspending fresh human erythrocytes in phosphate buffer (pH 7.4, 110 mM sodium phosphate) with various concentrations of NaCl and incubated for 30 min at room temperature. Samples were centrifuged at 500×g for 5 minutes, and haemoglobin release was monitored by measuring the absorbance of supernatants at 540 nm. The absorbance obtained with 0.1% NaCl corresponded to 100% lysis and that with 1% NaCl, to 0% lysis. Peptides dissolved in PBS were added to human erythrocyte solution at several concentrations. The resulting suspension was incubated separately at 37° C. for 2 h and 24 h. Release of hemoglobin was monitored by measuring the absorbance of the suspernatant at 540 nm after centrifuging and haemolysis percentage was calculated using the calibration curve.

- MIC (P. aeruginosa AV65): 1.5 µM (≈ 7.19 µg/mL)
- MIC (P. aeruginosa EF-OBG6-1): 1.5 µM (≈ 7.19 µg/mL)
- MIC (P. aeruginosa PAO-1): 1.5 µM (≈ 7.19 µg/mL)
- MIC [1]: 1.5 µM (≈ 7.19 µg/mL)
- MIC [2]: 0.3 µM (≈ 1.44 µg/mL)
- MIC [3]: 1.5 µM (≈ 7.19 µg/mL)
- MIC [4]: 1.5 µM (≈ 7.19 µg/mL)
- MIC [5]: 3 µM (≈ 14.4 µg/mL)
- MIC [6]: 3 µM (≈ 14.4 µg/mL)
- MIC [7]: 3 µM (≈ 14.4 µg/mL)
- MIC (P. aeruginosa VR-143/97): 1.5 µM (≈ 7.19 µg/mL)
- MIC [8]: 1.5 µM (≈ 7.19 µg/mL)
- MIC [9]: >24 µM
- MIC [10]: 1.5 µM (≈ 7.19 µg/mL)
- MIC [11]: 3 µM (≈ 14.4 µg/mL)
- MIC [12]: 1.5 µM (≈ 7.19 µg/mL)
- MIC [13]: 1.5 µM (≈ 7.19 µg/mL)
- MIC [14]: >24 µM
- MIC [15]: 1.5 µM (≈ 7.19 µg/mL)
- MIC [16]: >24 µM
- MIC [17]: 6 µM (≈ 28.8 µg/mL)
- MIC (K pneumoniae 7086042): 3 µM (≈ 14.4 µg/mL)
- MIC (K pneumoniae C8-27): 1.5 µM (≈ 7.19 µg/mL)
- MIC (K pneumoniae FIPP-1): 3 µM (≈ 14.4 µg/mL)
- MIC (E. coli W03BG0025): 1.5 µM (≈ 7.19 µg/mL)
- MIC (A. baumannii MR157): 3 µM (≈ 14.4 µg/mL)
- MIC (A. baumannii RUH 875): 3 µM (≈ 14.4 µg/mL)
- MIC (S. aureus 3851): 6 µM (≈ 28.8 µg/mL)
SMILES: CC[C@H](C)[C@H](NC(=O)[C@H](CCCCN)NC(=O)[C@@H](N)CCCNC(=N)N)C(=O)N[C@@H](CCCNC(=N)N)C(=O)N[C@H](C(=O)N[C@@H](CCCNC(=N)N)C(=O)N[C@@H](CC(C)C)C(=O)N[C@@H](CO)C(=O)N[C@@H](C)C(=O)NCCCC[C@H](NC(=O)[C@H](C)NC(=O)[C@H](CO)NC(=O)[C@H](CC(C)C)NC(=O)[C@H](CCCNC(=N)N)NC(=O)[C@@H](NC(=O)[C@H](CCCNC(=N)N)NC(=O)[C@@H](NC(=O)[C@H](CCCCN)NC(=O)[C@@H](N)CCCNC(=N)N)[C@@H](C)CC)C(C)C)C(=O)NCCCC[C@H](NC(=O)[C@H](CCCCNC(=O)[C@H](C)NC(=O)[C@H](CO)NC(=O)[C@H](CC(C)C)NC(=O)[C@H](CCCNC(=N)N)NC(=O)[C@@H](NC(=O)[C@H](CCCNC(=N)N)NC(=O)[C@@H](NC(=O)[C@H](CCCCN)NC(=O)[C@@H](N)CCCNC(=N)N)[C@@H](C)CC)C(C)C)NC(=O)[C@H](C)NC(=O)[C@H](CO)NC(=O)[C@H](CC(C)C)NC(=O)[C@H](CCCNC(=N)N)NC(=O)[C@@H](NC(=O)[C@H](CCCNC(=N)N)NC(=O)[C@@H](NC(=O)[C@H](CCCCN)NC(=O)[C@@H](N)CCCNC(=N)N)[C@@H](C)CC)C(C)C)C(=O)NCCC(=O)O)C(C)C [M36, RKIRVRLSA] (I: H-RKIRVRLSAKK[βAla]-OH / II: H-RKIRVRLSAK / III: H-RKIRVRLSA / IV: H-RKIRVRLSA; amide I:10-IV:C, I:11-II:C, II:10-III:C; N-terminus assumed)
- Haemolysis of human red blood cells (human erythrocytes): practically negligible haemolysis grade
